We go through three compounds from patent US9447015B1, “(S)-2′-vinyl-abscisic acid derivatives” (Valent BioSciences Corporation, priority 2015, dated 2016).

Experiment [1] relates to grapevines, Seedless 'Red Flame' (bud break and shoot development). The experiment is described as follows: Field study for breaking grape vine dormancy. The note with it: for Percent of Buds Broken / Shoot Length/Spur (total length of all shoots present on spur): 1% solution applied to dormant grape spurs. In kind it is in vivo. As for the experimental part: A small plot field study to test the effect of experimental compounds on release of, or breaking grape vine dormancy was conducted near Thermal, Calif. in January, 2016. The grapevines, Seedless ‘Red Flame’, had been pruned to 2-4 node spurs (shortened canes) prior to treatment. Aqueous treatment solutions were prepared with a test compound, an appropriate buffering agent, and a silicone-based nonionic surfactant at 0.25% (v/v). Each spur was thoroughly wetted with a 1% (w/v) solution, which was applied with a foam brush. Dormancy breaking was assessed periodically by examining bud break (initiation of growth) and subsequent shoot development. […] Both a control treatment (aqueous solution with surfactant) and a positive control treatment (the commercial standard for bud breaking, hydrogen cyanamide) were included in this study for comparison.

For experiment [2], the system named is Arabidopsis thaliana seed germination. Kind of experiment: Arabidopsis seed germination assay (promotion of germination in the presence of (S)-ABA). The experiment is classed as in vivo. The following applies: for Rating: Arabidopsis seed germination promotion activity: 30 ppm compound in the presence of 0.3 ppm (S)-ABA, scored on day 14. As for the experimental part:
To determine whether the (S)-ABA derivatives of the present invention were effective antagonists, germination assays were performed with the model plant Arabidopsis thaliana. If the compounds are found to be antagonists, they may be useful to counter any undesirable side effects of (S)-ABA.
Arabidopsis seed was sterilized by shaking for five minutes in 200 proof ethanol, followed by shaking for five minutes in a 10% bleach solution. The seeds were then washed five times in sterile, distilled, de-ionized water and suspended in 0.1% phytoagar. The tubes containing the seeds were wrapped in aluminum foil and stratified at 4° C. for two days.
All compounds were tested at a concentration of 30 ppm in the presence or absence of 0.3 ppm (S)-ABA, in 24-well plates. For each compound, a 1000 ppm stock solution was prepared in distilled, deionized water containing 5% DMSO. The stock test solution (15 μL) was added to each well, plus or minus 1.5 μL of 100 ppm (S)-ABA in 5% DMSO. Appropriate amounts of distilled, de-ionized water was added to equalize volumes, and 450 μL of ½×Murashige and Skoog media containing 1.2% Bactoagar was then added to each well (final DMSO concentration was 0.5%). When the media solidified, ten to 15 sterile stratified Arabidopsis seeds were distributed into each well using a repeat pipettor. The plates were sealed with surgical tape and placed in a growth chamber running diurnal cycles of 12 hours of light at 24° C. and 12 hours of darkness at 19° C. The plates were scanned on days 3 through 14, and scored on day 14. The (S)-2′-vinyl-substituted ABA derivatives were scored on ability to promote germination in the presence of (S)-ABA. The results are summarized below in “Table 1: Arabidopsis seed germination promotion activity of 2′-vinyl-(S)-ABA derivatives.”

“Also recorded” adds a separate entry of the source.

`N#CN` [Hydrogen cyanamide, hydrogen cyanamide, reference compound]: the “Percent of Buds Broken” value turned out to be 21.0% in experiment [1] (31 days post-treatment) and 58.8% in experiment [1] (48 days post-treatment). For the same compound, in experiment [1] (48 days post-treatment), the “Shoot Length/Spur (total length of all shoots present on spur)” value is 25.2 cm.

As to `CC(=C/C(=O)O)/C=C/[C@@]1(O)C(/C=C/c2ccc(F)c(F)c2)=CC(=O)CC1(C)C` [Compound 23], the “Percent of Buds Broken” value is listed as 16.7% in experiment [1] (31 days post-treatment) and 76.7% in experiment [1] (48 days post-treatment). In addition, the “Shoot Length/Spur (total length of all shoots present on spur)” value in experiment [1] (48 days post-treatment) was 22.2 cm; in experiment [1] (48 days post-treatment, listed as compound 23), “intermediate between the spurs treated with the control and hydrogen cyanamide”. In experiment [1] (application to dormant grape spurs, 1% solution), the “effect on bud break / breaking of woody plant dormancy” value is reported as “significantly increased bud break”. In addition, in experiment [2], the “Rating: Arabidopsis seed germination promotion activity” value was “+++ (Seeds germinated 8 to 10 days earlier than those treated with 0.3 ppm of (S)-ABA alone.)”. Moreover, the “antagonist nature compared to (S)-ABA” value in experiment [2] (seed germination assay, 30 ppm with 0.3 ppm (S)-ABA) is listed as “antagonists of (S)-ABA; also recorded: one of the most potent (S)-ABA antagonist”.

Take `CC(=C/C(=O)O)/C=C/[C@@]1(O)C(/C=C/c2cc(Cl)cc(Cl)c2)=CC(=O)CC1(C)C` [Compound 16]: the “Rating: Arabidopsis seed germination promotion activity” value in experiment [2] is recorded as “++ (Seeds germinated 5 to 7 days earlier than those treated with 0.3 ppm of (S)-ABA alone.)”.
